Source: PubChem BioAssay AID2060605 (Molecular Pharmacology Branch, DTP, NCI, 2025)

System: 947758-054-R-J2-PDC spheroid growth, percent test/control
Assay: Anticancer human tumor 947758-054-R-J2-PDC patient-derived colon adenocarcinoma cell line growth inhibition [CLK]
Conditions: spheroids with HUVEC and MSC; for IC50: curve of first compound; for viability, T/C: stronger effect = lower value; active means viability on the fitted dose curve at most 10% of control; inactive means the rest
In short: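 Patient-derived tumor cells grown as complex spheroids with HUVEC endothelial cells and mesenchymal stem cells, treated with drug combinations. Concentrations descend in half-log steps from near clinical Cmax, or from 10 microM if Cmax unknown.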

[1] = second compound 0.0316 µM, first compound 0.0316 µM
[2] = second compound 0.0316 µM, first compound 0.1 µM
[3] = second compound 0.0316 µM, first compound 0.316 µM
[4] = second compound 0.0316 µM, first compound 1 µM
[5] = second compound 0.0316 µM, first compound 3.16 µM
[6] = second compound 0.0316 µM, first compound 10 µM
[7] = second compound 0.1 µM, first compound 0.0316 µM
[8] = second compound 0.1 µM, first compound 0.1 µM
[9] = second compound 0.1 µM, first compound 0.316 µM
[10] = second compound 0.1 µM, first compound 1 µM
[11] = second compound 0.1 µM, first compound 3.16 µM
[12] = second compound 0.1 µM, first compound 10 µM
[13] = second compound 0.316 µM, first compound 0.0316 µM
[14] = second compound 0.316 µM, first compound 0.1 µM
[15] = second compound 0.316 µM, first compound 0.316 µM
[16] = second compound 0.316 µM, first compound 1 µM
[17] = second compound 0.316 µM, first compound 3.16 µM
[18] = second compound 0.316 µM, first compound 10 µM
[19] = second compound 1 µM, first compound 0.0316 µM
[20] = second compound 1 µM, first compound 0.1 µM
[21] = second compound 1 µM, first compound 0.316 µM
[22] = second compound 1 µM, first compound 1 µM
[23] = second compound 1 µM, first compound 3.16 µM
[24] = second compound 1 µM, first compound 10 µM
[25] = second compound 3.16 µM, first compound 0.0316 µM
[26] = second compound 3.16 µM, first compound 0.1 µM
[27] = second compound 3.16 µM, first compound 0.316 µM
[28] = second compound 3.16 µM, first compound 1 µM
[29] = second compound 3.16 µM, first compound 3.16 µM
[30] = second compound 3.16 µM, first compound 10 µM
[31] = second compound 10 µM, first compound 0.0316 µM
[32] = second compound 10 µM, first compound 0.1 µM
[33] = second compound 10 µM, first compound 0.316 µM
[34] = second compound 10 µM, first compound 1 µM
[35] = second compound 10 µM, first compound 3.16 µM
[36] = second compound 10 µM, first compound 10 µM
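Further: spheroids exposed to compounds for one week before readout.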
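Wherever viability, T/C is given: 100% = DMSO vehicle control wells.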

COc1cccc2c1C(=O)c1c(O)c3c(c(O)c1C2=O)CC(O)(C(=O)CO)CC3OC1CC(N)C(O)C(C)O1 (centres undefined) + CNC(=O)c1ccc(Nc2nc(OC3CCCC3)c3c(-c4ccc5nc(C)oc5c4)c[nH]c3n2)c(OC)c1
< 31.6 nM: IC50 (second compound 0.316 µM) | IC50 (second compound 1 µM) | IC50 (second compound 3.16 µM) | IC50 (second compound 10 µM)
42.3 nM: IC50 (second compound 0.1 µM)
inactive: viability, T/C [1] 59% | viability, T/C [2] 41.9% | viability, T/C [3] 32.6% | viability, T/C [4] 8.58% | viability, T/C [7] 52.9% | viability, T/C [8] 42.3% | viability, T/C [9] 23.6% | viability, T/C [13] 45.4% | viability, T/C [14] 32.1% | viability, T/C [15] 12.9% | viability, T/C [19] 28.7% | viability, T/C [20] 22.5% | viability, T/C [25] 28.1% | viability, T/C [26] 15.5% | viability, T/C [31] 23.3% | viability, T/C [32] 20.3%
68.2 nM: IC50 (second compound 0.0316 µM)
active: viability, T/C [5] 0.41% | viability, T/C [6] 6.15% | viability, T/C [10] 4.38% | viability, T/C [11] 0.29% | viability, T/C [12] 4.57% | viability, T/C [16] 2.1% | viability, T/C [17] 0.25% | viability, T/C [18] 5.74% | viability, T/C [21] 5.4% | viability, T/C [22] 0.36% | viability, T/C [23] 0.24% | viability, T/C [24] 6.92% | viability, T/C [27] 5.36% | viability, T/C [28] 0.27% | viability, T/C [29] 0.27% | viability, T/C [30] 9.95% | viability, T/C [33] 4.23% | viability, T/C [34] 0.21% | viability, T/C [35] 1% | viability, T/C [36] 12.1%

COC1C=CCC(C)C(C)S(=O)(=O)NC(=O)c2ccc3c(c2)N(CC2CCC21)CC1(CCCc2cc(Cl)ccc21)CO3 (centres undefined) + CN1CCN(c2cc(C(=O)Nc3cc4cc(-c5cnn(C)c5)ccc4cn3)ccn2)CC1
8020 nM: IC50 (second compound 0.0316 µM)
inactive: viability, T/C [1] 111% | viability, T/C [2] 106% | viability, T/C [3] 111% | viability, T/C [4] 97% | viability, T/C [5] 101% | viability, T/C [6] 37.8% | viability, T/C [7] 137% | viability, T/C [8] 163% | viability, T/C [9] 179% | viability, T/C [10] 174% | viability, T/C [11] 151% | viability, T/C [12] 35.2%
active: viability, T/C [13] 4.59% | viability, T/C [14] 2.89% | viability, T/C [15] 2.74% | viability, T/C [16] 3.21% | viability, T/C [17] 3.47% | viability, T/C [18] 6.05% | viability, T/C [19] 1.87% | viability, T/C [20] 4.11% | viability, T/C [21] 0.16% | viability, T/C [22] 1.58% | viability, T/C [23] 1.7% | viability, T/C [24] 0.3% | viability, T/C [25] 0.35% | viability, T/C [26] 0.72% | viability, T/C [27] 0.26% | viability, T/C [28] 1.14% | viability, T/C [29] 0.26% | viability, T/C [30] 0.15% | viability, T/C [31] 1.19% | viability, T/C [32] 3.23% | viability, T/C [33] 2.27% | viability, T/C [34] 1.77% | viability, T/C [35] 0.61% | viability, T/C [36] 1.23%
< 31.6 nM: IC50 (second compound 0.316 µM) | IC50 (second compound 1 µM) | IC50 (second compound 3.16 µM) | IC50 (second compound 10 µM)
8680 nM: IC50 (second compound 0.1 µM)
